Measured values as given in PMC7614683, “A small molecule PI3Kα activator for cardioprotection and neuroregeneration” (Nature, 2023).
Read-outs that look alike come from different tables or passages of the source.

Experiments:
Assay in all cases: SelectScreen Z-LYTE kinase activity assay (SI Table 6)
Type in all cases: biochemical
[1] = target: protein kinases of the Z-LYTE panel (Homo sapiens, UniProt P08069)
Description: (§1) 133 protein kinases and 7 lipid kinases were counterscreened, with 1938 used at 1 μM, using the Adapta, Lantha and Z-LYTE assays (SelectScreen Kinase Profiling Service; Thermofisher – experimental details of these assays can be found here: https://www.thermofisher.com/uk/en/home/industrial/pharma-biopharma/drug-discovery-development/target-and-lead-identification-and-validation/kinasebiology/kinase-activity-assays.html. The tree represention in KinMap[59] generated courtesy of Cell Signaling Technology, Inc. (www.cellsignal.com). mTORC1 (mTOR/RAPTOR/LST8) protein complex and ATM kinase and substrates were produced as previously described[57],[60]. Screening of 1938 was conducted using SuperSep Phos-Tag 50 μmol/l 100 x 100 x 6.6 mm 17-well (192-18001/199-18011) gels. For ATM assays, 100 nM ATM was incubated for 30 min at 30°C with 5 μM GST-p53 and 1 mM ATP, in the absence or presence of 200 μM 1938 in ATM Kinase Buffer (50 mM HEPES pH 7.5, 100 mM NaCl, 10% glycerol, 2 mM […], 5 mM MgCl2). As a positive control for ATM activation, the same reaction was carried out with 100 nM ATM/5 μM GST-p53/1 mM ATP in the presence of 100 nM Mre11-Rad50-Nbs1 (MRN) complex, a known activator of ATM[61]. For mTORC1 assays, 50 nM mTORC1 complex (mTOR/LST8/RAPTOR) was incubated for 3 h at 30°C with 15 μM 4E-BP1, 10 mM MgCl2 and 250 μM ATP, in the absence or presence of 200 μM 1938. As a ‘positive’ control, a higher concentration (150 nM) of mTORC1 complex (mTOR/LST8/RAPTOR) was incubated for 3 h at 30°C with 15 μM 4E-BP1, 10 mM MgCl2 and 250 μM ATP. Kinase reactions were quenched by addition of SDS-PAGE Loading Buffer (as per manufacturer’s instructions) and freezing at -20°C before being run on the Phos-tag gels at 150 V for 90 min. Gels were then stained using InstantBlue™ Coomassie, and quantified using BioRad Image Lab Software. Kinase assays were carried out in triplicate.

[2] = target: protein kinases of the Z-LYTE panel (Homo sapiens, UniProt Q13464)
Chain of protein kinases of the Z-LYTE panel (Homo sapiens, UniProt Q13464) (Q13464 whole entry): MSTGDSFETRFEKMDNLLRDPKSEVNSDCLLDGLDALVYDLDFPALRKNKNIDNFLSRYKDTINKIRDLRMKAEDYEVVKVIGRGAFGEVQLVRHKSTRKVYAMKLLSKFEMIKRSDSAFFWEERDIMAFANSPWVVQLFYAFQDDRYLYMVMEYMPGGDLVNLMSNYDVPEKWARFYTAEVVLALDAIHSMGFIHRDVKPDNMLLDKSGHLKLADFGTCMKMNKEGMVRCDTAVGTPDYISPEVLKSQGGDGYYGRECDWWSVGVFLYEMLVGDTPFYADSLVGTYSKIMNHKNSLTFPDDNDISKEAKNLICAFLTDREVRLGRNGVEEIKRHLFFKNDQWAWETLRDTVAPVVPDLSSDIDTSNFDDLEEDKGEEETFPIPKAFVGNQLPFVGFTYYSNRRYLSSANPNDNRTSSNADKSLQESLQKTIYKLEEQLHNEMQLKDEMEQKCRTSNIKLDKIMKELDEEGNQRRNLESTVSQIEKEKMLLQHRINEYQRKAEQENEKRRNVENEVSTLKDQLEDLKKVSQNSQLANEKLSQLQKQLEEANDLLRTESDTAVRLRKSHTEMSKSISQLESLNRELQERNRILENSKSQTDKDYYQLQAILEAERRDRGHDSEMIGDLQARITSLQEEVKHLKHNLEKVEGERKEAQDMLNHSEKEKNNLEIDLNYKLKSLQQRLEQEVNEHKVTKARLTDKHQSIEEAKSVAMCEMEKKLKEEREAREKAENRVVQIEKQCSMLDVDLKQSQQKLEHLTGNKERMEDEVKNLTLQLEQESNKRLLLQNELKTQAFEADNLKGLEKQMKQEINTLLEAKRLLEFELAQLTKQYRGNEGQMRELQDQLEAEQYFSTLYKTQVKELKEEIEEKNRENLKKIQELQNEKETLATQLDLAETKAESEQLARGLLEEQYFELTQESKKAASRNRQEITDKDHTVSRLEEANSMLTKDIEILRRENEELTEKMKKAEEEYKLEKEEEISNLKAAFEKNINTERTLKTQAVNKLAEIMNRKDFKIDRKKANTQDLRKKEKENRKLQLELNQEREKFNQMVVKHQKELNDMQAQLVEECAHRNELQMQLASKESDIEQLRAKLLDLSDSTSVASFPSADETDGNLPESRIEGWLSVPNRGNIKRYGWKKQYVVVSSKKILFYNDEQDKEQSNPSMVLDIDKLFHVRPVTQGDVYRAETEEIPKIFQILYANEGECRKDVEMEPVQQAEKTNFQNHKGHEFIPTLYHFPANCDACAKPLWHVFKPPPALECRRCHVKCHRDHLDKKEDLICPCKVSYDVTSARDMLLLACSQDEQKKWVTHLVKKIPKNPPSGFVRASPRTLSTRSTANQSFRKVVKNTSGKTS
Description: as §1

[3] = target: protein kinases of the Z-LYTE panel (Homo sapiens, UniProt Q13153)
Description: as §1

[4] = target: protein kinases of the Z-LYTE panel (Homo sapiens, UniProt Q7KZI7)
Chain of protein kinases of the Z-LYTE panel (Homo sapiens, UniProt Q7KZI7) (Q7KZI7 whole entry): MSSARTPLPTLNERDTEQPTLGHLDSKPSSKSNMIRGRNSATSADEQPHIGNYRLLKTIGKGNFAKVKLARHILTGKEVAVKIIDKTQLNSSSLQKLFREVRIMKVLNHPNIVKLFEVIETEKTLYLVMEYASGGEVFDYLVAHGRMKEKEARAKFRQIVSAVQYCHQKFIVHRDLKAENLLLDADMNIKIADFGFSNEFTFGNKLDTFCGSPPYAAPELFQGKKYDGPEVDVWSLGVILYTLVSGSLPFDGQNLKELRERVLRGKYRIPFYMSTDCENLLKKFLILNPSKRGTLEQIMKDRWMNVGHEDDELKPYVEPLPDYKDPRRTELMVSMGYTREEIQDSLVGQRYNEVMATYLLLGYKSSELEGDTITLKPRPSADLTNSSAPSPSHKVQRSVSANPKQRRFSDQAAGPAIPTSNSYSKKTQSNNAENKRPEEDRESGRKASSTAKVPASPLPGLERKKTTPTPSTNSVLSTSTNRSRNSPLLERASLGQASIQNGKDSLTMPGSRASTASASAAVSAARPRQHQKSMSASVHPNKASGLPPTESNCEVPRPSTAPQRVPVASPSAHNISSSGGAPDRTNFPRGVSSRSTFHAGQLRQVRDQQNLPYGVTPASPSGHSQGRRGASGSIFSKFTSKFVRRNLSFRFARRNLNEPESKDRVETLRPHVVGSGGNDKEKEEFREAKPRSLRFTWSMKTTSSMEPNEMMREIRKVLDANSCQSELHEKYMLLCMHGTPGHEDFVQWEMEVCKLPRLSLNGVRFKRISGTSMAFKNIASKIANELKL
Description: as §1

[5] = target: protein kinases of the Z-LYTE panel (Homo sapiens, UniProt O75116)
Chain of protein kinases of the Z-LYTE panel (Homo sapiens, UniProt O75116) (O75116 whole entry): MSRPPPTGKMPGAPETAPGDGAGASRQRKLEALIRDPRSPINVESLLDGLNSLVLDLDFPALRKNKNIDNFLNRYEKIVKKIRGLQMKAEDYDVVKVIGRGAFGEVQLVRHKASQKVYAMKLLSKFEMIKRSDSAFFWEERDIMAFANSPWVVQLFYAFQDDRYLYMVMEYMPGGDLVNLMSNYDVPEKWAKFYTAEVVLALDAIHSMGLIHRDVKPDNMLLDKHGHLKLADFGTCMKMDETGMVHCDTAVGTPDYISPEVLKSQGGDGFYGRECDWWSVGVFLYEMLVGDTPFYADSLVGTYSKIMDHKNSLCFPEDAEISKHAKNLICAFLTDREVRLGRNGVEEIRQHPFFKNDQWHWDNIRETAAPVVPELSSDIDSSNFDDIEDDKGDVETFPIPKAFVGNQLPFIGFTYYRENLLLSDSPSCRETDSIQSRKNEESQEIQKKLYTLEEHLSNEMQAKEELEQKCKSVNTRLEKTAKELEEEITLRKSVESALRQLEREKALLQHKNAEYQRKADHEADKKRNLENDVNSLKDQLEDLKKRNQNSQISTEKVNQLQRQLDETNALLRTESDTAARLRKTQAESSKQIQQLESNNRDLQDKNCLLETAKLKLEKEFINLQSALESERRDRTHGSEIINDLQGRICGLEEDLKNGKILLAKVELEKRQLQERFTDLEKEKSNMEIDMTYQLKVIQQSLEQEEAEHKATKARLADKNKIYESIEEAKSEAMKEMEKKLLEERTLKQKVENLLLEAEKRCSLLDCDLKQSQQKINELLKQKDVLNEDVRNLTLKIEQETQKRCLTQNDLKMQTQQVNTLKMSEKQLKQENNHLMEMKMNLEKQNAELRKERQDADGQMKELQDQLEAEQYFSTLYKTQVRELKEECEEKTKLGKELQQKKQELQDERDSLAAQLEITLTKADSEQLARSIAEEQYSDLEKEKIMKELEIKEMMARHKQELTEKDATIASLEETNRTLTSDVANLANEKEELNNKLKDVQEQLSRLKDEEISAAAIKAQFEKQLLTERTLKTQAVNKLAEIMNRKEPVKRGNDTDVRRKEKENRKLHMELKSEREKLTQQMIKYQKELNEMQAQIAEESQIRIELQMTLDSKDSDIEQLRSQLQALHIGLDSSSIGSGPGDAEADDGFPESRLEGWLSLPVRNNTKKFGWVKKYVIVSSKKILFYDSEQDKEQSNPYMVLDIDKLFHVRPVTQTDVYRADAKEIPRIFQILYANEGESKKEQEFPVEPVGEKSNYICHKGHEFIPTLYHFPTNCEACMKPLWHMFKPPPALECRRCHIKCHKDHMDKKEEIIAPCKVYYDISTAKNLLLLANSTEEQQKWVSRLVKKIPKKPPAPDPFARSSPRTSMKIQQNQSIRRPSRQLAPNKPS
Description: as §1

[6] = target: T1, protein kinases of the Z-LYTE panel (Homo sapiens, UniProt Q9UHD2)
T1 sequence (Q9UHD2 1-729): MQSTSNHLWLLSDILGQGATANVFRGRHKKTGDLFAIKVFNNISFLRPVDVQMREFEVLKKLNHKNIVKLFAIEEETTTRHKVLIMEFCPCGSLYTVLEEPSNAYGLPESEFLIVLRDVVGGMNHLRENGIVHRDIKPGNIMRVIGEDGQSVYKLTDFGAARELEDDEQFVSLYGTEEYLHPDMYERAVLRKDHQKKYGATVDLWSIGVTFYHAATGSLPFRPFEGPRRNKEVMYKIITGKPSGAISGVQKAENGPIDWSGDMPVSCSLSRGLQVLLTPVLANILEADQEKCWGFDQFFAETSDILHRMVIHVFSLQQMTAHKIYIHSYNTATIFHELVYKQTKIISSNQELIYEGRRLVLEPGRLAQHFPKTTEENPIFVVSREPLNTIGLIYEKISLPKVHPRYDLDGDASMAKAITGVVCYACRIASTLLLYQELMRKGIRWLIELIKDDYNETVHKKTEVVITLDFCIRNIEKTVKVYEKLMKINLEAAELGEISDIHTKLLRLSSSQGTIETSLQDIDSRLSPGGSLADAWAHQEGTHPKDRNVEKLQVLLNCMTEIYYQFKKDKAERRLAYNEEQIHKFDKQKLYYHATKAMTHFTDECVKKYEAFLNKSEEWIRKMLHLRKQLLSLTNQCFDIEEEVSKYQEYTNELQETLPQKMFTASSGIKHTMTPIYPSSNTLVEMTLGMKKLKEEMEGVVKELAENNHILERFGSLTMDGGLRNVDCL
Description: as §1

Chain of protein kinases of the Z-LYTE panel (Homo sapiens, UniProt P08069) (P08069 31-1367): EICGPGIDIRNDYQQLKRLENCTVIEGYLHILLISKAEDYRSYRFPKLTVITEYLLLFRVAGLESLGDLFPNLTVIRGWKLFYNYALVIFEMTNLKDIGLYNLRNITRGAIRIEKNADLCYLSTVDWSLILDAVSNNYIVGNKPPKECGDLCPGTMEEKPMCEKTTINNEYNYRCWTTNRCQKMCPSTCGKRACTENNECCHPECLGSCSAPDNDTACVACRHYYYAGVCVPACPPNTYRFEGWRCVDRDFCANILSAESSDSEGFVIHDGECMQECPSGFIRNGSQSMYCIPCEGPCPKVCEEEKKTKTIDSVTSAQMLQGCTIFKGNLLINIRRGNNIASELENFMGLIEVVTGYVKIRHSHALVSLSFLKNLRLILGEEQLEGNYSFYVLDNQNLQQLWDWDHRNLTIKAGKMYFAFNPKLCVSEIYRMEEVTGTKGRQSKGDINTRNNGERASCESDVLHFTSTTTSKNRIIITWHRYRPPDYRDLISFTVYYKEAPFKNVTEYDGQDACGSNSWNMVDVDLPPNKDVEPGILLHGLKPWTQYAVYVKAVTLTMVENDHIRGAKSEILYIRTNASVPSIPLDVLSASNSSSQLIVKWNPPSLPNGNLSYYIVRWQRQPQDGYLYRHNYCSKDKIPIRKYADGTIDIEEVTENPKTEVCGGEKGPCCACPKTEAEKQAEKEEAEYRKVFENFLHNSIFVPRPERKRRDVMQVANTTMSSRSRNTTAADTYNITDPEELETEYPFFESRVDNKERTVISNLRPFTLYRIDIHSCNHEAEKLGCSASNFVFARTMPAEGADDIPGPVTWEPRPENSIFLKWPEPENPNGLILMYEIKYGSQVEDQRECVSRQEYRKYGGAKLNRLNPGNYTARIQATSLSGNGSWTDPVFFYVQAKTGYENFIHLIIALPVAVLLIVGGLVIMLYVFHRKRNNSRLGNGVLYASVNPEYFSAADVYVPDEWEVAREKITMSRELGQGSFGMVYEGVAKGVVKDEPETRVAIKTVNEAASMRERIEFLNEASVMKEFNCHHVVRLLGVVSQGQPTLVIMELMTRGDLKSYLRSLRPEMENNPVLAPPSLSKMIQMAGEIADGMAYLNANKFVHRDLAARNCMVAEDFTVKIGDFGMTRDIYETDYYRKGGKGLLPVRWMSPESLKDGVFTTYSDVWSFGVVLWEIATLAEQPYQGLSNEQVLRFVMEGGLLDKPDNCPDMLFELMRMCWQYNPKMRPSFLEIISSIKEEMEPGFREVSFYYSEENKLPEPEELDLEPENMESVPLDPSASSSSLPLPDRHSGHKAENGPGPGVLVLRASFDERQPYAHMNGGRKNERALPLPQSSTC

SMILES: CCN1CCN(c2ccc(Nc3cc(Nc4cccc5c4N(C(C)=O)CC5)ccn3)cc2)CC1 [Compound 1938]
- inhibition at 1 µM ([1]; read-out: % Inhibition Point 1): 5.5%
- inhibition at 1 µM ([1]; read-out: % Inhibition Point 2): 5.33%
- inhibition at 1 µM ([1]; read-out: % Inhibition mean): 5.41%
- inhibition at 1 µM ([2]; read-out: % Inhibition Point 1): 0.45%
- inhibition at 1 µM ([2]; read-out: % Inhibition Point 2): 0.0147%
- inhibition at 1 µM ([2]; read-out: % Inhibition mean): 0.233%
- inhibition at 1 µM ([3]; read-out: % Inhibition Point 1): 2.85%
- inhibition at 1 µM ([3]; read-out: % Inhibition Point 2): 5%
- inhibition at 1 µM ([3]; read-out: % Inhibition mean): 4%
- inhibition at 1 µM ([4]; read-out: % Inhibition Point 1): 6.48%
- inhibition at 1 µM ([4]; read-out: % Inhibition Point 2): 4%
- inhibition at 1 µM ([4]; read-out: % Inhibition mean): 5.34%
- inhibition at 1 µM ([5]; read-out: % Inhibition Point 1): 1.58%
- inhibition at 1 µM ([5]; read-out: % Inhibition Point 2): 0.0356%
- inhibition at 1 µM ([5]; read-out: % Inhibition mean): 0.807%
- inhibition at 1 µM ([6]; read-out: % Inhibition Point 1): 4%
- inhibition at 1 µM ([6]; read-out: % Inhibition Point 2): 7.54%
- inhibition at 1 µM ([6]; read-out: % Inhibition mean): 6%
